Converted amounts (≈) assume the structure as drawn. “And” between values parts separate entries of the source, which are not always exact repeats. Identical values can stand only once.
Experiments:
[1] = system: log phase and stationary phase B. burgdorferi culture; assay: Antibiotic exposure assay, SYBR Green I/PI (drugs alone and combinations); settings: Borreliella burgdorferi, 168 h, read-out: Live Cell % (residual viable B. burgdorferi), ten-day-old stationary phase culture enriched with micro-colonies, 10 μg/mL each drug, 7 days
Summary of the method: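 Stationary-phase or round-body B. burgdorferi exposed 7 days at 33 °C to drugs alone or combined at 10 μg/mL each (single-compound screen: 50 μM final). Viability by SYBR Green I/PI, ex 485, em 535/635 nm; percent live from regression of green/red ratio, corrected by direct microscopy counting.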

[2] = system: B. burgdorferi log and stationary phase cultures; assay: epi-fluorescence microscope counting after antibiotic exposure (persister frequency, planktonic forms); format: cell-based, Borrelia burgdorferi
Protocol: Specimens were examined on a Nikon Eclipse E800 microscope equipped with differential interference contrast (DIC) and epi-fluorescence illumination, and recorded with a Spot slider color camera. Cell proliferation assays were performed by direct counting using a bacterial counting chamber (Hausser Scientific Partnership) and DIC microscopy. SYBR Green I/PI assay was performed to assess the viability of B. burgdorferi. The ratio of live (green) and dead (red) B. burgdorferi was calculated by counting these cells using a bacterial counting chamber and epi-fluorescence microscopy. The three representative images of every sample were captured for quantitative analysis. Image Pro-Plus software was applied for measuring the biomass (fluorescence intensity) of different forms (spirochetes, round body, and microcolony) of B. burgdorferi as previously described (Shopov and Williams, 2000).
To qualitatively determine the effect of antibiotics, 10 μL of each compound from the pre-diluted plate or pre-diluted stock was added to stationary phase B. burgdorferi culture in the 96-well plate. The final volume per well was adjusted to 100 μL at a concentration of 10 μg/mL for each antibiotic. Plates were sealed and placed in a 33° C. incubator for 7 days. The SYBR Green I/PI viability assay was used to assess the live and dead cells after antibiotic exposure as described (Feng, Wang, Shi, et al., 2014). Briefly, 10 μL of SYBR Green I (10,000×stock, Invitrogen) was mixed with 30 μL propidium iodide (PI, 20 mM) into 1.0 mL of sterile dH2O. Then, 10 μL of staining mixture was added to each well and mixed thoroughly. The plates were incubated at room temperature in the dark for 15 minutes followed by plate reading at excitation wavelength at 485 nm and the fluorescence intensity at 535 nm (green emission) and 635 nm (red emission) in microplate reader (HTS 7000 plus Bio Assay Reader, PerkinElmer Inc., USA). With least-square fitting analysis, the regression equation and regression curve of the relationship between percentage of live bacteria and green/red fluorescence ratios was obtained. The regression equation was used to calculate the percentage of live cells in each well of the 96-well plate.
Therefore, the frequency of B. burgdorferi persisters in log phase and stationary phase cultures was assessed using the SYBR Green I/PI viability assay after exposure of the cultures to antimicrobials. E. coli culture was used as a control after exposure to antibiotics to validate the SYBR Green I/PI viability assay for persister frequency assessment.

[3] = system: E. coli strains (W3110, UTI89, CFT073, KTE181); assay: Rapid SYBR Green/PI antibiotic susceptibility test; format: cell-based, Escherichia coli; settings: for percent killed, sensitive strain W3110: others 25 μg/mL
[4] = system: K. pneumoniae (Isolate 7); assay: Rapid SYBR Green/PI antibiotic susceptibility test, 30 minutes; format: cell-based, Klebsiella pneumoniae; settings: 25 μg/mL
[5] = system: round body form of B. burgdorferi; assay: SYBR Green I/PI assay on amoxicillin-induced round body form; settings: for viability at 50 µM: Borreliella burgdorferi, 168 h, read-out: Residual viable cells (SYBR Green I/PI assay); for Ratios of green/red fluorescence, Primary screening / Ratios of green/red fluorescence, Rescreening (first column) / Ratios of green/red fluorescence, Rescreening (second column): round body form, 50 μM, 7 days
[6] = system: stationary phase B. burgdorferi persisters (strain B31); assay: SYBR Green I/PI viability assay (plate reader), FDA-approved drug library screen
[7] = system: stationary phase B. burgdorferi persisters (strain B31); assay: epifluorescence microscope counting after SYBR Green I/PI staining, FDA drug screen
[8] = system: B. burgdorferi (growing, strain B31); assay: MIC determination, standard microdilution method; format: cell-based, Borrelia burgdorferi; settings: Borreliella burgdorferi; growing B. burgdorferi; read-out: MIC
[9] = system: S. aureus strains (Newman, USA300, CA-409, CA-127, NY-315); assay: Rapid SYBR Green/PI antibiotic susceptibility test; format: cell-based, Staphylococcus aureus; settings: for cut-off (averaged proportion of killed cells) for resistant strains / cut-off (averaged proportion of killed cells) for susceptible strains: 100 μg/mL, 1.5 hours
B. burgdorferi = settings: after 72 h; Kraiczy et al., 2001; cited from earlier work
S. aureus = settings: Zhu et al., 2005; cited from earlier work
[10] = system: stationary phase B. burgdorferi persisters (strain B31); assay: NCI compound library screen, SYBR Green I/PI assay (plate reader); settings: Borreliella burgdorferi, 168 h, read-out: Residual viable cells (SYBR Green I/PI assay)
[11] = system: stationary phase B. burgdorferi persisters (strain B31); assay: NCI compound library rescreen, epifluorescence microscope counting; settings: Borreliella burgdorferi, 168 h
M. tuberculosis H37Ra = format: cell-based, Mycobacterium tuberculosis; settings: pH 5.9
[12] = system: stationary phase B. burgdorferi persisters (strain B31); settings: drug alone; cited from earlier work
E. coli W3110 = assay: MIC by broth microdilution (OD600) and SYBR Green/PI; format: cell-based; settings: Escherichia coli; E. coli W3110, overnight incubation
Text: The Kirby-Bauer disk diffusion assay was used to determine the susceptibility of the various strains to antibiotics. Instructions and also interpretation of zone diameters were made using the established standards as listed in the Clinical and Laboratory Standards Institute (CLSI). Briefly, bacterial cultures were adjusted to a 0.5 McFarland turbidity standard and spread onto Mueller-Hinton agar. Paper Disks were impregnated onto the agar and the antibiotics at concentrations recommended by CLSI were pipetted onto each blank disk and allowed to air dry for 10 minutes. The plates were incubated at 37° C. overnight before the zone of inhibition was measured in millimeters. […]
The staining dye for Staphylococcus aureus, Escherichia coli, Acinetobacter baumanii, and Mycobacterium tuberculosis were made by mixing SYBR Green I to propidium iodide (1:3) in 100 μl distilled H2O. […] The green and red fluorescence intensity was detected using a Synergy H1 microplate reader by Bio Tek Instruments (VT, USA) at excitation wavelength of 485 nm, 538 nm (green emission), and 612 nm (red emission). The percentage of live cells in each sample was determined by a regression equation generated by a standard curve. […] The staining mixture was added to each sample and the green/red fluorescent ratios were measured as described above. […]

E. coli UTI89 persisters = assay: Persister assay (CFU enumeration and SYBR Green/PI); format: cell-based, Escherichia coli; settings: ampicillin 100, ofloxacin 5, polymycin B 10, gentamicin 20 μg/mL
Protocol: Stationary phase cultures of E. coli UTI89 were treated with ofloxacin (5 μg/mL) for 4 hours to enrich for persisters, followed by drug exposure with different antibiotics including ampicillin (100 μg/mL), ofloxacin (5 μg/mL), polymycin B (10 μg/mL) and gentamicin (20 μg/mL). The bacterial viability was determined by CFU enumeration and SYBR Green/PI assay as described above.

S. aureus USA300 = assay: MIC by broth microdilution (OD600) and SYBR Green/PI; format: cell-based; settings: Staphylococcus aureus; S. aureus USA300, overnight incubation
[13] = 30 minutes, ampicillin 100 μg/mL
[14] = 50 μM, 7 days, stationary phase
[15] = ampicillin, streptomycin 100 μg/mL, trimethoprim 5 μg/mL

## CO/N=C(\C(=O)N[C@@H]1C(=O)N2C(C(=O)O)=C(CSc3nc(=O)c(=O)[nH]n3C)CS[C@H]12)c1csc(N)n1 [Ceftriaxone]
[1]
  viability at 10 µg/mL: 68%
[2]; 3-day log phase culture
  persister frequency (percentage of live cells after antibiotic treatment, in brackets): (5.8%)
[2]; 7-day stationary phase culture
  persister frequency (in brackets): (16%)
[2]; 10-day stationary phase culture
  persister frequency (in brackets): (~25%)
[3]; [13]
  percent killed, sensitive strain W3110: 37%
[4]
  killing of resistant K. pneumoniae strain: not killed at all
[5]
  viability at 50 µM: 36%
  Ratios of green/red fluorescence, Primary screening: 6.37
  Ratios of green/red fluorescence, Rescreening (first column): 6.29
  Ratios of green/red fluorescence, Rescreening (second column): 6.39
[6]; [14]
  Ratio of Green/Red fluorescence, Primary screening: 6.74
  Ratio of Green/Red fluorescence, Rescreening (first column): 6.89
  Ratio of Green/Red fluorescence, Rescreening (second column): 6.78
[6]; Borreliella burgdorferi, 168 h, read-out: Residual viable cells (regression equation, SYBR Green I/PI assay)
  viability at 50 µM: 44%
[7]; Borreliella burgdorferi, 168 h, read-out: Residual viable cells (epifluorescence microscope counting)
  viability at 50 µM: 50%

## O=C(O)c1cn(C2CC2)c2cc(N3CCNCC3)c(F)cc2c1=O [Ciprofloxacin]
[8]
  MIC: 0.8 to 1.6 µg/mL (≈ 2.41 to 4.83 µM)
[9]
  cut-off (averaged proportion of killed cells) for resistant strains: −0.1
  cut-off (averaged proportion of killed cells) for susceptible strains: −0.3
[9]; 30 minutes, kanamycin 25, ciprofloxacin 50, gentamicin 400 μg/mL
  percent killed, resistant strain CA-409: 21%
[9]; 30 minutes, kanamycin 25, erythromycin 400, ciprofloxacin 50, gentamicin 400 μg/mL
  percent killed, sensitive Newman strain: 58%
B. burgdorferi
  MBC: 16 μg/mL and 41.5 μM

## COc1cccc2c1C(=O)c1c(O)c3c(c(O)c1C2=O)C[C@@](O)(C(C)=O)C[C@@H]3OC1CC(N)C(O)C(C)O1.Cl (some centres unmarked) [NSC82151, Daunorubicin hydrochloride]
[8]
  MIC: ≤ 0.35 µg/mL
S. aureus
  MIC against S. aureus: 8 to 32 µg/mL
[10]
  viability at 50 µM: 0%
[11]; read-out: Activity against persisters (residual viable cell percentage)
  viability at 50 µM: 10%
[11]; read-out: Residual viable cells (epifluorescence microscope counting)
  viability at 50 µM: 10%

## NC(=O)c1cnccn1 [PZA, pyrazinamide]
M. tuberculosis H37Ra
  susceptibility of parent strain H37Ra: susceptible

## Cc1ccc(C(C)C)c(O)c1 [Thymol]
[12]
  residual live cell percentage, stationary phase, previous drug screen: 82%
[5]
  viability at 50 µM: 34%
  Ratios of green/red fluorescence, Primary screening: 6.15
  Ratios of green/red fluorescence, Rescreening (first column): 6.36
  Ratios of green/red fluorescence, Rescreening (second column): 6.36

## CC1(C)S[C@@H]2[C@H](NC(=O)[C@H](N)c3ccccc3)C(=O)N2[C@H]1C(=O)O [ampicillin]
E. coli W3110
  MIC: 8 µg/mL
[3]; [13]
  percent killed, sensitive strain UTI89: 23%
  percent killed, sensitive strain W3110: 38%
[3]; 30 minutes, ampicillin 100, trimethoprim 25, streptomycin 25 μg/mL
  percent killed, resistant strain KTE181: 1%
[3]; [15]
  cut-off (averaged proportion of killed cells) for resistant strains: -0.1
  cut-off (averaged proportion of killed cells) for susceptible strains: −0.5
E. coli UTI89 persisters
  level of persisters over 7 days (words; CFU and SYBR Green/PI): stayed constant

## CO/N=C(\C(=O)N[C@@H]1C(=O)N2C(C(=O)O)=C(COC(C)=O)CS[C@H]12)c1csc(N)n1 [cefotaxime]
[3]; [13]
  percent killed, sensitive strain W3110: 24%
[4]
  killing of resistant K. pneumoniae strain: not killed at all

## O=C(N[C@H](CO)[C@H](O)c1ccc([N+](=O)[O-])cc1)C(Cl)Cl [chloramphenicol]
S. aureus USA300
  MIC: 4 µg/mL (≈ 12.4 µM)
[9]
  cut-off (averaged proportion of killed cells) for resistant strains: −0.1
  cut-off (averaged proportion of killed cells) for susceptible strains: −0.5

## COc1cccc2c1C(=O)c1c(O)c3c(c(O)c1C2=O)C[C@@](O)(C(=O)CO)C[C@@H]3O[C@H]1C[C@H](N)[C@H](O)[C@H](C)O1 [doxorubicin]
S. aureus
  MIC against S. aureus: 0.12 to 0.5 µg/mL
[6]; FDA drug screen
  activity against stationary phase B. burgdorferi (words; SYBR Green I/PI assay): very high activity
[7]; FDA drug screen
  bactericidal activity by microscopic counting: no bactericidal activity
